Assay: solubility (saturation concentration) of the salts in water versus temperature, FIG. 2
Assay type: physicochemical
Conditions: at 0° C., aqueous, read from FIG. 2

For `[Cl-].[K+]` [KCl], the “saturation concentration in water” value was “about 0.41 moles/100 g H2O”.

From patent publication US20090155318A1, “PROCESS TO FORM NANO-SIZED MATERIALS, THE COMPOSITIONS AND USES THEREOF” (priority 2006, published 2009)
